Columns and labels:
HIV integrase = HIV integrase (Human immunodeficiency virus type 1 group M subtype B, UniProt P04585); experiment: integrase inhibition assay (microtiter plate, substrate DNA / target DNA); format: biochemical; details: integrase 30 pmol, incubated at 30° C. for 1 hour, OD at 405 nm, concentration at percent inhibition 50%; for IC50: read-out: MIA, IC50 (ug/ml) (converted)
Description: The inhibitory activities against integrase of the presnt compounds were determined by the assay described below.
(1) Preparation of DNA Solutions
Substrate DNA and target DNA synthesized by Amersham Pharmacia Biotech, which sequences were indicated below, were dissolved in KTE buffer (composition: 100 mM KCl, 1 mM EDTA, 10 mM Tris-HCl (pH 7.6)) at a concentration of 2 pmol/μl and 5 pmol/μl, respectively. The DNA solutions were heated and then slowly cooled so that they were annealed with each complement.
(Sequence of Substrate DNA)
(2) Calculations of the percent inhibitions (IC50 values of test compounds)
Streptavidin, obtained from Vector Laboratories, was dissolved in 0.1 M carbonate buffer (composition: 90 mM Na2CO3, 10 mM NaHCO3) at a concentration of 40 μg/ml. After coating each well of microtiter plates (obtained from NUNC) with 50 μl of the above solution at 4° C. over night, each well was washed twice with PBS (composition: […], 0.27 mM KCl, 0.43 mM Na2HPO4, 0.14 mM KH2PO4) and blocked with 300 μl of 1% skim milk in PBS for 30 min. Additionally, each well was washed twice with PBS and added with 50 μl of the substrate DNA solution (2 pmol/μl). The microtiter plates were kept at room temperature for 30 min. Then, each well was washed twice with PBS and once with H2O.
Subsequently, to the each well prepared above were added 45 μl of the reaction buffer prepared from 12 μl of the buffer (composition: 150 mM MOPS (pH 7.2), 75 mM MnCl2, 50 mM 2-mercaptoethanol, 25% glycerol, 500 μg/ml bovine serum albumin-fraction V), 1 μl of target DNA (5 pmol/μ), and 32 μl of the distilled water. Additionally, 6 μl of either a test compound in DMSO or DMSO for positive control (PC) was mixed with the above reaction buffer, then 9 μl of an integrase solution (30 pmol) was added thereto and the mixture was mixed well. To the well of negative control (NC) was added 9 μl of the integrase dilution buffer (composition: 20 mM MOPS (pH7.2), 400 mM potassium glutamate, 1 mM EDTA, 0.1% NP-40, 20% glycerol, 1 mM DTT, 4 M urea).
The microtiter plates were incubated at 30° C. for 1 hour. The reaction solution was removed and each well was washed twice with PBS. Subsequently, each well of the microtiter plates was filled with 100 μl of anti-digoxigenin antibody labeled with alkaline phosphatase (Sheep Fab fragment: obtained from Boehringer) and incubated at 30° C. for 1 hour. Then, each well was washed twice with 0.05% Tween20 in PBS and once with PBS. Next, 150 μl of the Alkaline phosphatase reaction buffer (composition: 10 mM p-Nitrophenylphosphate (obtained from Vector Laboratories), 5 mM MgCl2, 100 mM NaCl, 100 mM Tris-HCl (pH 9.5)) was added to each well. The microtiter plates were incubated at 30° C. for 2 hours and the reaction was terminated by the addition of 50 μl of 1 N NaOH solution. The optical density (OD) at 405 nm of each well was measured and the percent inhibition was determined by the following expression. The percent inhibition (%)=100[1−{(C abs.−NC abs.)/(PC abs.−NC abs.)}]
C abs.; the OD of the well of the test compound
NC abs.: the OD of the negative control (NC)
PC abs.: the OD of the positive control (PC)
When the percent inhibition (%) is X % at a concentration of x μg/ml and the percent inhibition (%) is Y % at a concentration of y μg/ml, one of which is more than 50% and the other is less than 50%, IC50 can be determined by the following expression. IC50 (μg/ml)=x−{(X−50)(x−y)/(X−Y)}
Compound No. in the Table 1 is the same as compound No. of the above Examples.

SMILES	melting point [°C]	IC50 (HIV integrase) [nM]	MIA, IC50 (HIV integrase) [µg/mL]
COC(=O)c1ncc2cc(Cc3ccc(F)cc3)cnc2c1O [Compound A-2, Methyl 3-(4-fluorobenzyl)-8-hydroxy-1,6-naphthylidine-7-carboxylate]	218 to 219	416	
COC(=O)c1nc(NS(C)(=O)=O)c2cc(Cc3ccc(F)cc3)cnc2c1O [Compound A-9, Methyl 3-(4-fluorobenzyl)-8-hydroxy-5-methanesulfonylamino-1,6-naphthylidine-7-carboxylate]	205 to 210	222	
COC(=O)c1nc(NC(C)=O)c2cc(Cc3ccc(F)cc3)cnc2c1O [Compound A-10, Methyl 5-acetylamino-3-(4-fluorobenzyl)-8-hydroxy-1,6-naphthylidine-7-carboxylate]	263 to 267	379	
COC(=O)c1nc(C(=O)OC)c2cc(Cc3ccc(F)cc3)cnc2c1O [Compound A-15, Dimethyl 3-(4-fluorobenzyl)-8-hydroxy-1,6-naphthylidine-5,7-dicarboxylate]	191 to 194	783	
COC(=O)c1nc(C#CCO)c2cc(Cc3ccc(F)cc3)cnc2c1O [Compound A-18, Methyl 3-(4-fluorobenzyl)-8-hydroxy-5-(3-hydroxy-1-propynyl)-1,6-naphthylidine-7-carboxylate]	205 to 208	655	
CCC(=O)c1ncc2cc(Cc3ccc(F)cc3)cnc2c1O [Compound A-19, 1-[3-(4-fluorobenzyl)-8-hydroxy-1,6-naphthylidin-7-yl]propan-1-one]			0.12
COC(=O)c1nc(N2CCCCS2(=O)=O)c2cc(Cc3ccc(F)cc3)cnc2c1O [Compound A-22, Methyl 3-(4-fluorobenzyl)-5-(1,1-dioxido-1,2-thiazinan-2-yl)-8-hydroxy-1,6-naphthylidine-7-carboxylate]		427	
COC(=O)c1nc(NS(=O)(=O)N(C)C)c2cc(Cc3ccc(F)cc3)cnc2c1O [Compound A-26, Methyl 5-[(dimethylamino)sulfonyl]-amino-3-(4-fluorobenzyl)-8-hydroxy-1,6-naphthylidine-7-carboxylate]	159 to 160	345	
COCCC(=O)Nc1nc(C(=O)OC)c(O)c2ncc(Cc3ccc(F)cc3)cc12 [Compound A-34, 3-(4-Fluorobenzyl)-8-hydroxy-5-(3-methoxy-1-propionyl)amino[1,6]naphthylidine-7-carboxylic acid methyl ester]	205 to 206	701	
CCOC(=O)Nc1nc(C(=O)OC)c(O)c2ncc(Cc3ccc(F)cc3)cc12 [Compound A-42, 5-[(Ethoxycarbonyl)amino]-3-(4-fluorobenzyl)-8-hydroxy[1,6]naphthylidine-7-carboxylic acid methyl ester]	247 to 249	576	
COC(=O)c1nc(C#CCNS(C)(=O)=O)c2cc(Cc3ccc(F)cc3)cnc2c1O [Compound A-50, 3-(4-Fluorobenzyl)-8-hydroxy-5-[3-(methanesulfonyamino)propyn-1-yl][1,6]naphthylidine-7-carboxylic acid methyl ester]	223 to 225	248	
COC(=O)c1nc(C(=O)N2CCN(C)CC2)c2cc(Cc3ccc(F)cc3)cnc2c1O [Compound A-54, 5-(4-Methylpiperadine-1-carbonyl)-3-(4-fluorobenzyl)-8-hydroxy[1,6]naphthylidine-7-carboxylic acid methyl ester]	226 to 227	1300	
COC(=O)c1nc(NC(=O)c2ccco2)c2cc(Cc3ccc(F)cc3)cnc2c1O [Compound A-66, 3-(4-Fluorobenzyl)-5-(frane-2-carbonyl)amino-8-hydroxy[1,6]naphthylidine-7-carboxylic acid methyl ester]	200 to 202	688	
COCC(C)OC(=O)c1ncc2cc(Cc3ccc(F)cc3)cnc2c1O (stereo not drawn) [Compound A-79, 3-(4-Fluorobenzyl)-8-hydroxy[1,6]naphthylidine-7-carboxylic acid [2-(1-methoxy)propyl]ester]	130 to 131	351	
CC(=O)N1CCC(OC(=O)c2ncc3cc(Cc4ccc(F)cc4)cnc3c2O)CC1 [Compound A-82, 3-(4-Fluorobenzyl)-8-hydroxy[1,6]naphthylidine-7-carboxylic acid 1-acetylpiperidine-4-yl ester]	163 to 165	260	
CNC(=O)c1nc(C#CCO)c2cc(Cc3ccc(F)cc3)cnc2c1O [Compound A-98, 3-(4-Fluorobenzyl)-8-hydroxy-5-(3-hydroxy-1-propyn-1-yl)-[1,6]naphthylidine-7-carboxylic acid methyl amide]	185	520	
COC(=O)c1nc(NC(=O)C(=O)N(C)C)c2cc(Cc3ccc(F)cc3)cnc2c1O [Compound A-115, 5-[[(Dimethylamino)oxalyl]amino]-3-(4-fluorobenzyl)-8-hydroxy[1,6]naphthylidine-7-carboxylic acid methyl ester]		422	
COC(=O)c1cc(C(=O)O)c2cc(Cc3ccc(F)cc3)cnc2c1O [Compound I-3, 3-(4-Fluorobenzyl)-8-hydroxy-quinoline-5,7-dicarboxylic acid 7-methylester]	237 to 239	394	
O=C(O)c1cc(C(=O)O)c2cc(Cc3ccc(F)cc3)cnc2c1O [Compound I-4, 3-(4-Fluorobenzyl)-8-hydroxyquinoline-5,7-dicarboxylic acid]	279 to 282	352	
COC(=O)c1cc(C(=O)NCCO)c2cc(Cc3ccc(F)cc3)cnc2c1O [Compound I-5, 3-(4-Fluorobenzyl)-8-hydroxy-5-(2-hydroxyethylcarbamoyl)quinoline-7-carboxylic acid methylester]	207 to 208	502	
COCCNC(=O)c1cc(C(=O)OC)c(O)c2ncc(Cc3ccc(F)cc3)cc12 [Compound I-6]	152 to 154	412	
NC(=O)c1cc(C(=O)O)c(O)c2ncc(Cc3ccc(F)cc3)cc12 [Compound I-7, 5-Carbamoyl-3-(4-fluorobenzyl)-8-hydroxyquinoline-7-carboxylic acid]	265 to 266	705	
COC(=O)c1cc(NC=O)c2cc(Cc3ccc(F)cc3)cnc2c1O [Compound I-13, 3-(4-Fluorobenzyl)-5-formylamino-8-hydroxyquinoline-7-carboxylic acid methyl ester]		1040	
COC(=O)c1cc(C(=O)N2CCOCC2)c2cc(Cc3ccc(F)cc3)cnc2c1O [Compound I-26, (4-Fluorobenzyl)-8-hydroxy-5-(morpholine-4-carbonyl)quinoline-7-carboxylic acid methyl ester]			0.37
COC(=O)c1cc(C(=O)NC(C)C(=O)OC)c2cc(Cc3ccc(F)cc3)cnc2c1O (stereo not drawn) [Compound I-54, (4-Fluorobenzyl)-8-hydroxy-5-(1-methoxycarbonylethylcarbamoyl)quinoline-7-carboxylic acid methyl ester]			0.38
COC(=O)c1cc(C(=O)NCCCO)c2cc(Cc3ccc(F)cc3)cnc2c1O [Compound I-58, 3-(4-Fluorobenzyl)-8-hydroxy-5-(3-hydroxypropylcarbamoyl)quinoline-7-carboxylic acid methyl ester]		388	
